Test results taken from US6337417B1, “N-phenyltetrahydrophthalamic acid derivatives, methods of producing same, and herbicides containing same as effective components” (Central Glass Co., Ltd., priority 1994, dated 2002).

Experiments:
Assay type in all cases: in vivo
Set-up in all cases: key: 5: completely killed; 4: seriously injured; 3: considerably injured; 2: somewhat injured; 1: slightly injured; 0: not injured (normally grown)
Details in all cases: 4 weeks after treatment
[1] = system: mehishiba (henry crabgrass, Digitaria cliaris); assay: Experiment 2 foliage treatment: mehishiba
Protocol: (§1) Upon seedling stage (two- or three-leaved stage) of rice, cockspur (Panicum crus-galli), garden radish, aobiyu (slender amaranth, Amaranthus viridis) and mehishiba (henry crabgrass, Digitaria cliaris) which were grown on a cultivated soil put in pots of 1/15500 ares, a selected compound obtained in a manner analogous to Example 8, in suspended wettable powder, was sprayed to each plant. After that, the pots were kept in a glass chamber to allow each plant to grow, and after the lapse of 4 weeks from the treatment with the selected compounds the herbicidal effects were evaluated. The evaluation of the herbicidal effects was similarly conducted as to that of Experiment 1.

[2] = system: ooinutade (pale smartweed, Persicaria lapathifolia); assay: Experiment 3 foliage treatment: ooinutade
Protocol: as §1, with “ichibi (velvetleaf, Abutilon theophrasti), onamomi (heartleaf cocklebur, Xanthium strumarium) (4L stage), noasagao (blue morningglory, Ipomoea indica)” for “rice, cockspur (Panicum crus-galli), garden radish, aobiyu (slender amaranth, Amaranthus viridis)”, “ooinutade (pale smartweed, Persicaria lapathifolia)” for “mehishiba (henry crabgrass, Digitaria cliaris)”, “1/8850” for “1/15500”

[3] = system: onamomi (heartleaf cocklebur, Xanthium strumarium); assay: Experiment 3 foliage treatment: onamomi
Protocol: as §1, with “ichibi (velvetleaf, Abutilon theophrasti), onamomi (heartleaf cocklebur, Xanthium strumarium) (4L stage), noasagao (blue morningglory, Ipomoea indica)” for “rice, cockspur (Panicum crus-galli), garden radish, aobiyu (slender amaranth, Amaranthus viridis)”, “ooinutade (pale smartweed, Persicaria lapathifolia)” for “mehishiba (henry crabgrass, Digitaria cliaris)”, “1/8850” for “1/15500”

[4] = system: noasagao (blue morningglory, Ipomoea indica); assay: Experiment 3 foliage treatment: noasagao
Protocol: as §1, with “ichibi (velvetleaf, Abutilon theophrasti), onamomi (heartleaf cocklebur, Xanthium strumarium) (4L stage), noasagao (blue morningglory, Ipomoea indica)” for “rice, cockspur (Panicum crus-galli), garden radish, aobiyu (slender amaranth, Amaranthus viridis)”, “ooinutade (pale smartweed, Persicaria lapathifolia)” for “mehishiba (henry crabgrass, Digitaria cliaris)”, “1/8850” for “1/15500”

garden radish = assay: Experiment 2 foliage treatment: garden radish
Protocol: as §1

[5] = system: aobiyu (slender amaranth, Amaranthus viridis); assay: Experiment 2 foliage treatment: aobiyu
Protocol: as §1

[6] = system: cockspur (Panicum crus-galli); assay: Experiment 2 foliage treatment: cockspur
Protocol: as §1

rice = assay: Experiment 2 foliage treatment: rice
Protocol: as §1

[7] = system: ichibi (velvetleaf, Abutilon theophrasti); assay: Experiment 3 foliage treatment: ichibi
Protocol: as §1, with “ichibi (velvetleaf, Abutilon theophrasti), onamomi (heartleaf cocklebur, Xanthium strumarium) (4L stage), noasagao (blue morningglory, Ipomoea indica)” for “rice, cockspur (Panicum crus-galli), garden radish, aobiyu (slender amaranth, Amaranthus viridis)”, “ooinutade (pale smartweed, Persicaria lapathifolia)” for “mehishiba (henry crabgrass, Digitaria cliaris)”, “1/8850” for “1/15500”

paddy rice = assay: Experiment 1 flooded soil treatment: injury to paddy rice
Description: (§2) Paddy soil (clay loam) was put into a pot so as to have a surface area of 1/15500 ares. Uniformly mixed seeds of several kinds of weeds, viz., nobie (barnyardgrass, Echinochloa spp.), broad-leaved weeds, hotarui (bulrush, Scirpus juncoides) and tamagayatsuri (small-flowered umbrellaplant, Cyperus difformis), were sown in the surface layer of the soil in each pot, and then paddy rice seedlings at the two- or three-leaved stage were transplanted into each pot to a depth of 2 cm, and water was fed into each pot so as to provide a 3 cm deep water layer on the soil surface. After 3 days, in other words at the initial stage of germination of nobie (barnyardgrass, Echinochloa spp.), a predetermined amount of a selected compound obtained in a manner analogous to Example 8 in the form of diluted aqueous solution was dropped into the water layer in each pot. After that, the pots were kept in a glass chamber to allow the paddy rice and the weeds to grow, and after the lapse of 4 weeks from the treatment with the selected compounds, the herbicidal effects and the degree of injury to the paddy rice were evaluated. In the table, the herbicidal effects and the degree of injury to the paddy rice are indicated by numerical values, which have the following meaning.
(§3) 0: not injured (normally grown)

[8] = system: tamagayatsuri (small-flowered umbrellaplant, Cyperus difformis); assay: Experiment 1 flooded soil treatment: tamagayatsuri
Description: as §2, §3

[9] = system: hotarui (bulrush, Scirpus juncoides); assay: Experiment 1 flooded soil treatment: hotarui
Description: as §2, §3

broad-leaved weeds = assay: Experiment 1 flooded soil treatment: broad-leaved weeds
Description: as §2, §3

[10] = system: nobie (barnyardgrass, Echinochloa spp.); assay: Experiment 1 flooded soil treatment: nobie
Description: as §2, §3

SMILES	Herbicidal Effect mehishiba ([1]; 40 g/10a)	Herbicidal Effect mehishiba ([1]; 80 g/10a)	Herbicidal Effect garden radish (garden radish; 40 g/10a)	Herbicidal Effect garden radish (garden radish; 80 g/10a)	Herbicidal Effect aobiyu ([5]; 40 g/10a)	Herbicidal Effect aobiyu ([5]; 80 g/10a)	Herbicidal Effect cockspur ([6]; 40 g/10a)	Herbicidal Effect cockspur ([6]; 80 g/10a)	Herbicidal Effect rice (rice; 40 g/10a)	Herbicidal Effect rice (rice; 80 g/10a)	Injury of Paddy (paddy rice; 12.5 g/10a)	Injury of Paddy (paddy rice; 25 g/10a)	Herbicidal Effect tamagayatsuri ([8]; 12.5 g/10a)	Herbicidal Effect tamagayatsuri ([8]; 25 g/10a)	Herbicidal Effect hotarui ([9]; 12.5 g/10a)	Herbicidal Effect hotarui ([9]; 25 g/10a)	Herbicidal Effect broad-leaved weed (broad-leaved weeds; 12.5 g/10a)	Herbicidal Effect broad-leaved weed (broad-leaved weeds; 25 g/10a)	Herbicidal Effect nobie ([10]; 12.5 g/10a)	Herbicidal Effect nobie ([10]; 25 g/10a)	further results
CCCCOC(=O)C1=C(C(=O)N(C(=O)CC)c2cc(SCC(=O)OC)c(Cl)cc2F)CCCC1 [compound 35]	1	1	5	5	5	5	1	2	1	1											Herbicidal Effect ooinutade ([2]; 4 g/10a): 5; Herbicidal Effect ooinutade ([2]; 8 g/10a): 5; Herbicidal Effect onamomi ([3]; 4 g/10a): 4; Herbicidal Effect onamomi ([3]; 8 g/10a): 4; Herbicidal Effect noasagao ([4]; 4 g/10a): 4; Herbicidal Effect noasagao ([4]; 8 g/10a): 5; Herbicidal Effect ichibi ([7]; 4 g/10a): 5; Herbicidal Effect ichibi ([7]; 8 g/10a): 5
CCOC(=O)C1=C(C(=O)N(C(=O)CC)c2cc(SCC(=O)OC)c(Cl)cc2F)CCCC1 [compound 33]	1	1	5	5	5	5	1	1	1	1											Herbicidal Effect ooinutade ([2]; 4 g/10a): 5; Herbicidal Effect ooinutade ([2]; 8 g/10a): 5; Herbicidal Effect onamomi ([3]; 4 g/10a): 5; Herbicidal Effect onamomi ([3]; 8 g/10a): 5; Herbicidal Effect noasagao ([4]; 4 g/10a): 4; Herbicidal Effect noasagao ([4]; 8 g/10a): 5; Herbicidal Effect ichibi ([7]; 4 g/10a): 5; Herbicidal Effect ichibi ([7]; 8 g/10a): 5
C#CCOC(=O)C1=C(C(=O)N(C(C)=O)c2cc(SCC(=O)OC)c(Cl)cc2F)CCCC1 [compound 15]	1	1	5	5	4.5	5	1	1	1	1	0	0.5	4	5	4	4	5	5	5	5	
CCOC(=O)C1=C(C(=O)N(C(C)=O)c2cc(SCC(=O)OC)c(Cl)cc2F)CCCC1 [Compound No. 12]	1	1	5	5	5	5	1	1	1	1	0.5	0.5	5	5	4	5	5	5	5	5	
CCC(=O)N(C(=O)C1=C(C(=O)OC)CCCC1)c1cc(SCC(=O)OC)c(Cl)cc1F [compound 16]	1	1	5	5	5	5	1	1	1	1	0.5	0.5	5	5	5	5	5	5	5	5	
COC(=O)CSc1cc(N(C(=O)C2=C(C(=O)OC)CCCC2)C(=O)c2cccc(F)c2)c(F)cc1Cl [compound 19]	1	1	4	5	5	5	1	1	1	1	0	0.5	5	5	5	5	5	5	5	5	
CCCCCOC(=O)C1=C(C(=O)N(C(=O)CC)c2cc(SCC(=O)OC)c(Cl)cc2F)CCCC1 [compound 17]	1	1	5	5	5	5	2	2	1	1	0	0.5	5	5	4	5	5	5	5	5	
